Results as given in patent US20080213377A1, “Delivery of Nanoparticles and/or Agents to Cells” (priority 2006, published 2008).
No end group written: not given here.

Legend:
[1] = tested on: HeLa cells; test: QD internalization in HeLa cell monolayers, flow cytometry (Example 8); type: cell-based; conditions: free peptide 1 μM to 1 mM added with 50 nM F3-QDs
Description: After four hours, cells were washed with media, treated with trypsin (0.25%) and EDTA, and resuspended in 1% BSA (in PBS) for flow cytometry (BD FACSort, FL1 for EGFP signal and FL3 for QD signal). Fluorescence data on 10,000 cells were collected for each sample and the geometric mean of intensity was reported.

[2] = tested on: collagenase (Clostridiopeptidase A); test: Protease activation of nanoparticles (TAMRA dequenching), collagenase; type: biochemical; conditions: 25 μM; collagenase 20 μg/ml
[3] = molecular target: T1, Recombinant MMP-2 (Homo sapiens, UniProt P08253); test: Protease activation of nanoparticles (TAMRA dequenching), MMP-2; conditions: 25 μM; MMP-2 2.5 μg/ml
T1 sequence (P08253 110-660): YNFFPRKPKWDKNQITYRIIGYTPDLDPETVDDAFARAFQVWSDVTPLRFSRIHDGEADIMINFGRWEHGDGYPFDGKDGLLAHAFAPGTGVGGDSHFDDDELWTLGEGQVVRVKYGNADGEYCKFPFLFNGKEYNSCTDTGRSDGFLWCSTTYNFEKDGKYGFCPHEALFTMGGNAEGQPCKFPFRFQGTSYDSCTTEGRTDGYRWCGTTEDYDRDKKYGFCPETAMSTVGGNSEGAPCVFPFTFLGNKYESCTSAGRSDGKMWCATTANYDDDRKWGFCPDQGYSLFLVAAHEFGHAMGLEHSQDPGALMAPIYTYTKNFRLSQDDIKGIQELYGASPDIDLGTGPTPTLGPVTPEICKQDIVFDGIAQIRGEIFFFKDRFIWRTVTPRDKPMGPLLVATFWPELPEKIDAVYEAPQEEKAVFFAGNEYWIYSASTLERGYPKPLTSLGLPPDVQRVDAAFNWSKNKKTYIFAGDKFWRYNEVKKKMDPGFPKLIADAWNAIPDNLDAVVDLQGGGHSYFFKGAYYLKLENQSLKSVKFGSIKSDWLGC
Description: Activation was monitored by the release of TAMRA quenching at an excitation of 515 nm and emission of 580 nm.

[4] = tested on: Glioblastoma cells; test: Photoactivation of endosomal escape in glioblastoma cells; type: cell-based
Method: Fluorescein labeled CAR peptide ([…]) was synthesized using an ABI Model 433A peptide synthesizer from Biopolymers Laboratory, the MIT Center for Cancer Research. The peptide was cyclized by bubbling air into an aqueous solution of the peptide at 0.1 mg/ml overnight. Complete cyclization was confirmed by mass spectrometry and HPLC analysis.
Glioblastoma cells were obtained from the laboratory of Phil Sharp (MIT). The cyclized peptide (cCAR) was incubated with cells for 2 hours at 37° C. in complete culture medium (DMEM supplemented with serum, streptomycin, penicillin and fungizone). A monolayer of the cells was then rinsed with warm media three times. Microscopy photographs were taken after overnight incubation of the cells. For activation of photosensitizer, Arc lamp light from a microscope was irradiated onto the cells for two minutes.

[5] = molecular target: Nucleolin on the surface of HeLa cells (UniProt P19338); test: cell-based or functional assay
[6] = tested on: Peptide-PEG (MMP-2 cleavable L-AA substrate coupled to 10 kDa PEG) immobilized on dextran-coated iron oxide nanoparticles
[7] = tested on: Free MMP-2 cleavable peptide substrate NH2-G-K(TAMRA)-G-P-L-G-V-R-G-C-CONH2

Nucleolin on the surface of HeLa cells, sequence (P19338 2-710 limits assumed): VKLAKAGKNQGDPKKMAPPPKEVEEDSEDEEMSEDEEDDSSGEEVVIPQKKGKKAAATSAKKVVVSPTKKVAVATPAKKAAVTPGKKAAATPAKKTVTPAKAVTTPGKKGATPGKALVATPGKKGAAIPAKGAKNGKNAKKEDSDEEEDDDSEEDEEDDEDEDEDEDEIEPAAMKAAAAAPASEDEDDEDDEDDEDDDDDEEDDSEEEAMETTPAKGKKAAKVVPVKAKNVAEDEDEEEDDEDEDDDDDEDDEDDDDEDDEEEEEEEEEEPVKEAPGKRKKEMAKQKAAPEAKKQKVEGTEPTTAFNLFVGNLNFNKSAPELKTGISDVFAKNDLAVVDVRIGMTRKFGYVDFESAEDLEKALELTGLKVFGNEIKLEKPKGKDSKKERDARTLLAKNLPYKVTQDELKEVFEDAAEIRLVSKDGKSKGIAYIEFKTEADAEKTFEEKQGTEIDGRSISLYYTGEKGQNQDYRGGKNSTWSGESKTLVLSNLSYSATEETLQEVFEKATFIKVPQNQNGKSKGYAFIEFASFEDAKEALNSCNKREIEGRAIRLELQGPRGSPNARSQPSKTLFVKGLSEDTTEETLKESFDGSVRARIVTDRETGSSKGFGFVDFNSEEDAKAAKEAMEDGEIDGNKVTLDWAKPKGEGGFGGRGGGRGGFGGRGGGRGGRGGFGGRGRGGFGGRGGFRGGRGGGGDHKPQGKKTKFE

Molecule: Lys-Ala-Arg-Glu-Cys (KAREC; printed: Lys-Ala-Arg-Glu-Cys) [KAREC peptide]
- inhibition of F3-QD uptake by free peptide [1]: minimal

Molecule: CNC(=O)[C@H](Cc1c[nH]c2ccccc12)NC(=O)[C@@H](CC(=O)NO)CC(C)C [Galardin]
- inhibition of nanoparticle activation (peptide-PEG cleavage) [2]: inhibits activation
- inhibition of nanoparticle activation (peptide-PEG cleavage) [3]: inhibits activation

Molecule: cyclic CAR peptide: Fluorescein labeled, cyclized CAR peptide (CARSKNKDC), binds heparan sulfate proteoglycans (also: fluorescein label, position not given here, cyclized, bond type not given here)
- internalization into cells ([4]; 2 hours at 37° C., without light irradiation): internalized
- endosomal escape upon light irradiation ([4]; Arc lamp light irradiation): distributed evenly inside cells

Molecule: F3-QD (F3 peptide C[Ahx]… conjugated to PEG-amino quantum dots)
- QD uptake by HeLa cells (flow cytometry) (orders of magnitude) [5]: 2

Molecule: Recombinant MMP-2
- Kcat/Km (cleavage of the substrate by MMP-2 over time, TAMRA dequenching) [6]: 8.42 and 26.7 µM^-1 hr^-1 respectively
- fold reduction of MMP-2 Kcat/Km against the free peptide [6]: reduces its associated MMP-2 Kcat/Km within a practical range, 3.2 fold
- Kcat/Km (cleavage of the substrate by MMP-2 over time, fluorescamine assay) [7]: 8.42 and 26.7 µM^-1 hr^-1 respectively
